Where “and” joins values, the source holds several entries; their conditions need not be identical. Equal entries are not always repeated. Where two headings read alike, the source gives them in different places. Each block holds one molecule with its values, some of them ahead of it.
Columns and labels:
[1] = Fluorescence quantum yield; type: physicochemical; details: for fluorescence quantum yield: in ethanol, unpublished data
Description: Steady-state fluorescence spectroscopic studies were performed on a Cary Eclipse fluorometer. The slit width was 5 nm for both excitation and emission. The relative quantum yields of the samples were obtained by comparing the area under the corrected emission spectrum of the test sample with that of a standard. The quantum efficiencies of fluorescence were obtained from multiple measurements (N=3) with the following equation:
Φx=Φst(Ix/Ist)(Ast/Ax)(ηx^2/ηst^2)
Where Φst is the reported quantum yield of the standard, I is the area under the emission spectra, A is the absorption at the excitation wavelength and η is the refractive index of the solvent used, measured on a pocket refractometer from ATAGO. X subscript denotes test sample, and st denotes standard.

HL60 = experiment: In vitro antiproliferative MTT assay in HL60, 24 h endpoint; type: cell-based, human; details: triplicate determination; for IC50: read-out: IC50 (μM) ± S.D. in HL60
Description: In vitro proliferation assay. Approximately 3 000-5 000 (15 000 cells for HL-60) exponentially growing cells were seeded in each well of a 96-well plate with 50 μl of medium and were allowed to adhere overnight. Cells were then treated with each compound at concentrations ranging from 0.01-10 μM giving the final volume of 100 μl in each well. At the end of incubation period, 15 μl of MTT solution (5.0 mg/ml in PBS) was added and incubated for an additional 4 h. Medium and excessive MTT were aspirated and formazan formed was solubilized with 100 μl of DMSO. Absorbance, as a measurement of viable cell number was read at 570 nm with ThermoLabsystems OpsysMR microplate spectrometer. At least three independent experiments were performed and results are presented as an average.

HSC2 cells [2] = details: IC50 concentration (0.25 μM), 4 h to 48 h
Description: Cell cycle analysis. HSC2 cells were treated and collected as above. Cells were then fixed in 70% ice-cold ethanol (v/v in PBS) overnight at 4° C. Following fixation, the cells were washed twice in cold PBS. The pellet was then resuspended in PBS solution containing 20 μg/ml RNase A and 1 μM SYTOX Green for 30 min. The cells were analysed on a FACSCalibur flow cytometer with 488 nm argon laser. The DNA-SYTOX Green fluorescence of 10 000 cells were collected with the FL1 detector with 530/30 band pass filter.

HSC2 = experiment: In vitro anti-proliferative MTT assay, 48 h, HSC2; type: cell-based, human; details: HSC2, oral, 48 h post-treatment, read-out: IC50 (μM) ± S.D., HSC2
Source text: (§1) In vitro proliferation assay.

MCF-7 = experiment: In vitro anti-proliferative MTT assay, 48 h, MCF-7; type: cell-based, human; details: MCF-7, breast, 48 h post-treatment, read-out: IC50 (μM) ± S.D., MCF-7
Source text: as §1

HK1 = experiment: In vitro anti-proliferative MTT assay, 48 h, HK1; type: cell-based, human; details: HK1, nasopharyngeal, 48 h post-treatment, read-out: IC50 (μM) ± S.D., HK1
Source text: as §1

NP69 = experiment: In vitro anti-proliferative MTT assay, 48 h, NP69 immortalized normal nasopharyngeal epithelial cells; type: cell-based; details: immortalized normal human epithelial cells, read-out: IC50 (μM) ± S.D., NP69
Source text: as §1

OKF6 = experiment: In vitro anti-proliferative MTT assay, 48 h, OKF6 immortalized normal oral keratinocytes; type: cell-based; details: immortalized normal human epithelial cells, read-out: IC50 (μM) ± S.D., OKF6
Source text: as §1

HCT116 = experiment: In vitro anti-proliferative MTT assay, 48 h, HCT116; type: cell-based, human; details: HCT116, colon, 48 h post-treatment, read-out: IC50 (μM) ± S.D., HCT116
Source text: as §1

HSC2 cells [3] = details: 0.5 μM
Description: AnnexinV-FITC apoptosis analysis. HSC2 cells grown in 60-mm dishes at 50% confluency were treated with 0.5 μM of compound 11. At various treatment intervals, floating cells in the medium were pooled together with the adherent cells after trypsinization and were washed twice with cold PBS. The cells were resuspended with 1× binding buffer at 1×10^6 cells/ml. A 100 μl of cell suspension was transferred to a 5 ml tube followed by […] of AnnexinV-FITC and […] of propidium iodide (200 μg/ml in PBS). The cells were gently mixed and incubated for 15 min at RT in the dark before analysed on a FACSCalibur flow cytometer with 488 nm argon laser. The fluorescence data of 10 000 cells were collected with the FL1 detector with 530/30 band pass filter to collect Annexin-FITC fluorescence, and the FL3 detector with a 630 nm long pass filter to collect propidium iodide fluorescence.

HSC2 cells [4] = details: 100 nM
Description: Cellular localization. HSC2 cells grown on round glass coverslips in 12-well plate were co-incubated with 100 nM of compound 11 together with organelle-specific fluorescence probes. The endoplasmic reticulum was labeled with 100 nM of ER-Tracker Blue-White DPX, the lysosomes were stained with 500 nM of LysoTracker Blue DND-22, and the mitochrondria was tracked with 100 nM of Rh123 respectively for 15-30 min of incubation at room temperature. After incubation, cells were gently rinsed in PBS to remove free dyes, and the stained cells were observed using Olympus DSU spinning disk confocal microscope configured with a PlanApo x63 oil objective and iXon EM+(Andor Technology) digital camera. Fluorescent images of X-Y sections at 0.2 μm were collected sequentially using Olympus Cell^R software. Organelle-specific fluorescence probes were respectively excited at 365 nm to illuminate ER-tracker and LysoTracker, at 494 nm for Rh123 and at 575 nm for compound 11.

[5] = system: whole animal tumor models; details: a number of whole animal tumor models; cited from earlier work
[6] = system: transformed mouse mammary epithelial cells; details: cells with increased mitochondrial transmembrane potential; cited from earlier work
[7] = system: A6-derived subcutaneous tumors; details: nude mice, intraperitoneal injection; cited from earlier work
cancer cells = details: cited from earlier work
carcinoma = details: cited from earlier work
[8] = system: non-tumorigenic epithelial cell types; details: in vitro, similar concentrations; cited from earlier work
carcinoma cell types = details: in vitro; cited from earlier work
[9] = Homo sapiens, HL-60, HL60, 24 h post-treatment

- quantum yield ([1]; in phosphate buffer): 0.13
- IC50 (μM) ± S.D. in HL60 (HL60; HL60, 24 h post-treatment): moderate to poor activity
- IC50 (HL60; [9]): > 100 µM
Molecule: O=C(O)COc1cccc(OCC(=O)O)c1-c1c2ccc(=[N+]3CCCCC3)cc-2oc2cc(N3CCCCC3)ccc12 [Compound 16]

Molecule: Ic1ccc(-c2c3ccc(=[N+]4CCCCC4)cc-3oc3cc(N4CCCCC4)ccc23)cc1.[Cl-] [Compound 11]
- fluorescence quantum yield [1]: 0.28 ± 0.01
- cell cycle profile (HSC2 cells [2]): remained unchanged
- IC50 (HSC2): 0.25 ± 0.12 µM
- IC50 (MCF-7): 0.39 ± 0.22 µM
- IC50 (HK1): 0.42 ± 0.06 µM
- IC50 (NP69): 0.51 ± 0.16 µM
- IC50 (OKF6): 0.41 ± 0.07 µM
- IC50 (HCT116): 0.39 ± 0.11 µM
- cells staining positive for annexin V (HSC2 cells [3]; 0 h or 4 h time-points): less than 10%
- cells staining positive for annexin V (HSC2 cells [3]; 8 h of compound incubation): 16%
- proportion of cells undergoing apoptosis (HSC2 cells [3]; within 24 h): 58%
- presence of compound in the nucleus (HSC2 cells [4]): remained free of compound 11
- staining of the cytoplasmic or nuclear membrane (HSC2 cells [4]): not detected
- co-localisation with ER and lysosomes (HSC2 cells [4]; ER-Tracker and LysoTracker): only partial co-localisation
- IC50 (HL60; HL60, 24 h post-treatment): 0.09 µM

- IC50 (μM) ± S.D. in HL60 (HL60; HL60, 24 h post-treatment): moderate to poor activity
- IC50 (HL60; [9]): 2.91 ± 1.86 µM
Molecule: Oc1cccc(O)c1-c1c2ccc(=[N+]3CCCCC3)cc-2oc2cc(N3CCCCC3)ccc12 [Compound 15]

Molecule: Cc1cc(N)c2ccccc2[n+]1CCCCCCCCCC[n+]1c(C)cc(N)c2ccccc21 [dequalinium chloride]
- activity in whole animal tumor models [5]: anti-carcinoma activity

Molecule: 3-ethyl-3′-methyl-thiatelluracarbocyanine iodide
- activity in whole animal tumor models [5]: anti-carcinoma activity

Molecule: Cc1ccccc1-c1c2ccc(=[N+]3CCN(C(=O)OC(C)(C)C)CC3)cc-2oc2cc(N3CCN(C(=O)OC(C)(C)C)CC3)ccc12 [Compound 5]
- IC50 (HL60; HL60, 24 h post-treatment): 0.62 ± 0.07 µM

Molecule: Cc1c2ccc(=[N+]3CCCCC3)cc-2oc2cc(N3CCCCC3)ccc12.[Cl-] [Compound 7]
- IC50 (μM) ± S.D. in HL60 (HL60; HL60, 24 h post-treatment): moderate to poor activity
- IC50 (HL60; HL60, 24 h post-treatment): 3.86 ± 1.46 µM

Molecule: COc1cccc(OC)c1-c1c2ccc(=[N+]3CCCCC3)cc-2oc2cc(N3CCCCC3)ccc12 [Compound 14]
- IC50 (HL60; HL60, 24 h post-treatment): 0.25 ± 0.22 µM

Molecule: C[n+]1ccc(/C=C/c2c[nH]c3ccccc23)cc1.[I-] [Compound F16]
- proliferation of transformed mouse mammary epithelial cells [6]: selectively inhibited proliferation
- growth of A6-derived subcutaneous tumors [7]: retard the growth

Molecule: Cc1ccccc1-c1c2ccc(=[N+]3CCOCC3)cc-2oc2cc(N3CCOCC3)ccc12.[Cl-] [Compound 4]
- IC50 (μM) ± S.D. in HL60 (HL60; HL60, 24 h post-treatment): moderate to poor activity
- IC50 (HL60; HL60, 24 h post-treatment): 8.27 µM

Molecule: [Cl-].c1csc(-c2c3ccc(=[N+]4CCCCC4)cc-3oc3cc(N4CCCCC4)ccc23)c1 [Compound 10]
- fluorescence quantum yield [1]: 0.10 ± 0.01
- IC50 (HSC2): 0.12 ± 0.09 µM
- IC50 (MCF-7): 0.27 ± 0.16 µM
- IC50 (HK1): 0.09 ± 0.01 µM
- IC50 (NP69): 0.33 ± 0.2 µM
- IC50 (OKF6): 0.25 ± 0.1 µM
- IC50 (HCT116): 0.15 ± 0.06 µM
- IC50 (HL60; HL60, 24 h post-treatment): 0.1 µM

Molecule: COc1ccc(-c2c3ccc(=[N+]4CCCCC4)cc-3oc3cc(N4CCCCC4)ccc23)cc1 [Compound 12]
- IC50 (HL60; HL60, 24 h post-treatment): 0.66 ± 0.17 µM

Molecule: CCn1c(=O)/c(=C2\Sc3ccccc3N2C)s/c1=C\c1cccc[n+]1CC.[Cl-] [MKT-077]
- growth of cancer cells in vitro and in vivo (cancer cells): significantly inhibit growth
- accumulation in tumor cell mitochondria (carcinoma; clinical study): preferentially accumulated in tumor cell mitochondria
- clinical efficacy (carcinoma; phase II, approved dosage and drug regimen): lack of efficacy

Molecule: COc1ccccc1-c1c2ccc(=[N+]3CCCCC3)cc-2oc2cc(N3CCCCC3)ccc12 [Compound 13]
- IC50 (HL60; HL60, 24 h post-treatment): 0.95 ± 0.01 µM

Molecule: Cc1ccccc1-c1c2ccc(=[N+]3CCNCC3)cc-2oc2cc(N3CCNCC3)ccc12.[Cl-] [Compound 6]
- IC50 (μM) ± S.D. in HL60 (HL60; HL60, 24 h post-treatment): moderate to poor activity
- IC50 (HL60; HL60, 24 h post-treatment): 36.7 µM and 53.3 µM

Molecule: COC(=O)c1ccccc1-c1c2ccc(=N)cc-2oc2cc(N)ccc12.Cl [Rh123, rhodamine 123, reference compound]
- IC50 (HSC2): 4.48 ± 2.23 µM
- non-tumorigenic epithelial cell types that remained unaffected [8]: 6/6
- IC50 (MCF-7): 5.61 ± 0.61 µM
- IC50 (HK1): 5.86 ± 0.15 µM
- carcinoma cell types in which cell death was markedly induced (carcinoma cell types): 9/9
- IC50 (NP69): 6.28 ± 0.21 µM
- IC50 (OKF6): 9.84 ± 3.46 µM
- IC50 (HCT116): 7.92 ± 0.95 µM

Molecule: c1ccc(Cc2c3ccc(=[N+]4CCCCC4)cc-3oc3cc(N4CCCCC4)ccc23)cc1 [Compound 8]
- IC50 (HL60; HL60, 24 h post-treatment): 0.82 ± 0.04 µM

Molecule: Cc1ccccc1-c1c2ccc(=[N+]3CCCCC3)cc-2oc2cc(N3CCCCC3)ccc12 [Compound 2]
- IC50 (HL60; HL60, 24 h post-treatment): 0.76 ± 0.03 µM

Molecule: Cc1ccccc1-c1c2ccc(=[N+]3CCCC3)cc-2oc2cc(N3CCCC3)ccc12 [Compound 1]
- IC50 (HL60; HL60, 24 h post-treatment): 0.72 ± 0.09 µM

Molecule: Cc1ccccc1-c1c2ccc(=[N+]3CCOCC3)cc-2oc2cc(N3CCCCC3)ccc12.[Cl-] [Compound 3]
- IC50 (μM) ± S.D. in HL60 (HL60; HL60, 24 h post-treatment): lowest IC50 value among compounds 1-6
- IC50 (HL60; HL60, 24 h post-treatment): 0.35 ± 0.01 µM

From patent US20110212955A1, “ROSAMINE DERIVATIVES AS AGENTS FOR THE TREATMENT OF CANCER” (CANCER RESEARCH INITIATIVES FOUNDATION, priority 2008, published 2011)
